The values below are quoted from earlier work in patent US20100056645A1, “Chromatographic Media and Chromatographic Equipment Storage Solutions and Use Thereof” (priority 2007, published 2010).

Bounds are passed on as bounds.

The data set concerns gram positive bacteria.

`OCc1ccccc1` [benzyl alcohol]: the “pH of optimal bactericidal activity” value is under 5.0.
